Tested on: 217524-143-R1-J4-PDC spheroids with HUVEC/MSC, viability
Assay: Anticancer human tumor 217524-143-R1-J4-PDC patient-derived pancreatic carcinoma cell line growth inhibition [CLK]
Conditions: for IC50: curve of first compound; for viability, T/C: stronger effect = lower value
Excerpt: A high-throughput screen of multi-cell type tumor spheroids was designed to identify active combinations of […] and targeted small molecules. Complex spheroids include a stromal component modeled by human endothelial cells (HUVEC) and fibroblasts modeled by human mesenchymal stem cells (MSCs). The concentration ranges selected for each drug and investigational agent were based upon clinically achievable concentrations if the clinical Cmax of the agent was known.
Compounds. The drugs and investigational agents: cirtuvivint (SM08502; NSC835563), CC-671 (NSC850746), vemurafenib (NSC761431), tapotoclax (NSC804041), sotorasib (NSC818433), adagrasib (NSC831453), MRTX-1133 (NSC836407), BAY2416964 (NSC825713), copanlisib (NSC816437), inavolisib (NSC800729), abemaciclib (NSC768073), osimertinib (NSC779217), entinostat (NSC756642), eltanexor (KPT-8602, NSC794443), venetoclax (NSC766270), ceralasertib (NSC777638), bortezomib (NSC756655), olaparib (NSC753686), talazoparib (NSC767125), alisertib (NSC759677), peposertib (NSC802822), gemcitabine (NSC613327), 5-fluorouracil (NSC19893), SN-38 (NSC673596), oxaliplatin (NSC266046), paclitaxel (NSC125973), and doxorubicin (NSC123127), were obtained from the National Cancer Institute (NCI) Developmental Therapeutics Program Chemical Repository. The FDA-approved anticancer drug set is available from the Developmental Therapeutics Program at https://dtp.cancer.gov/organization/dscb/obtaining/available plates.htm. […] The stock solutions were prepared in dimethyl sulfoxide (DMSO, Sigma-Aldrich, St. Louis, MO, cat. D2650), except for the platinum complexes which were prepared in saline (Quality Biological, Gaithersburg, MD, cat. 114-055-101), at 800-fold the tested concentration and stored at -70 degrees C prior to their use. All drugs and investigational agents were tested over a range starting from a high concentration at or near the clinical Cmax and decreasing in half-log increments. If the clinical Cmax for an agent had not been determined, the highest concentration tested was 10 microM.
Cell Culture. All cells were maintained in an incubator at 37 degrees C and 5% CO2 with 95% humidity. The PDC lines were cultured according to standard operating procedures established by the NCI PDMR. Briefly, all PDCs were thawed and cultured in Matrigel-coated flasks prepared with a working solution of 1X Ham's F-12 nutrient mix, without supplementation (Invitrogen, Waltham, MA, cat. 11765054), 100 U/mL penicillin-streptomycin (Invitrogen, cat. 15140122), and 2.5% Matrigel (Corning Inc., Corning, NY, cat. 354248) for the first three passages. The 947758-054-R-J2-PDC line was cultured in 6B/Colon 1A media, which includes advanced DMEM/F-12 (Thermo Fisher Scientific, cat. 12634028), 10 mM HEPES (Thermo Fisher Scientific, cat. 15630080), 1X GlutaMAX supplement (Thermo Fisher Scientific, cat. 35050061), 0.1 mg/mL primocin (InvivoGen, cat. ant-pm-2), 10% defined fetal bovine serum, heat inactivated (HyClone Laboratories Inc., cat. SH30070.03HI), 1.25 mM N-Acetyl-L-cysteine (Sigma-Aldrich, cat. A9165), 10 mM nicotinamide (Sigma-Aldrich, cat. N0636), 1X B-27 supplement (Thermo Fisher Scientific, cat. 17504044), 1X N-2 supplement (Thermo Fisher Scientific, cat. 17502048), and 10 microM Y-27632 dihydrochloride (Tocris Bioscience, cat. 1254). The 876862-298-R-J1-PDC was cultured in 6E media, which includes all 6B/Colon 1A media components plus 50% L-WRN conditioned media (ATCC, cat. CRL-3276), 50 ng/mL recombinant human EGF recombinant protein (hEGF; Thermo Fisher Scientific, cat. PHG0311), 10 ng/mL recombinant human fibroblast growth factor 10 (hGFG-10; PeproTech, cat. 100-26), 1 ng/mL recombinant human fibroblast growth factor 2 (hFGF-2; PeproTech, cat. 100-18B), and 1 µM prostaglandin E2 (PGE2; Tocris, cat. 2296). The 227483-062-R1-J1-PDC line was cultured in Panc media, containing all 6E components except hFGF-2, with the addition of 500 nM SB-431542 (Selleckchem, cat. S1067) and 10 nM gastrin (Tocris, cat. 3006). […]
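Further: spheroids exposed to agents for seven days before reading.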
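Wherever viability, T/C is given: 100% = DMSO vehicle control viability.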

**Q.** `C=C(F)C(=O)N1CCN(c2nc(OCC3CCCN3C)nc3c2CCN(c2cccc4cccc(Cl)c24)C3)CC1CC#N` (configuration not stated) + CN1CCN(c2cc(C(=O)Nc3cc4cc(-c5cnn(C)c5)ccc4cn3)ccn2)CC1 was tested. Which IC50 (second compound 0.0316 µM) did it give?
**A.** Its IC50 is 5.1 µM.

**Q.** And the IC50 (second compound 0.1 µM)?
**A.** Its IC50 is 2.3 µM.

**Q.** What about the IC50 (second compound 0.316 µM) of the same molecule?
**A.** The IC50 was < 0.0316 µM.

**Q.** And the IC50 (second compound 1 µM)?
**A.** Its IC50 is < 0.0316 µM.

**Q.** What about the IC50 (second compound 3.16 µM) of the same molecule?
**A.** The IC50 was < 0.0316 µM.

**Q.** And the IC50 (second compound 10 µM)?
**A.** The IC50 was < 0.0316 µM.

**Q.** What about the viability, T/C (second compound 0.0316 µM, first compound 0.0316 µM) of the same molecule?
**A.** Its viability, T/C is 71.2%.

**Q.** What about the viability, T/C (second compound 0.0316 µM, first compound 0.1 µM) of the same molecule?
**A.** The viability, T/C was 89.9%.

**Q.** And the viability, T/C (second compound 0.0316 µM, first compound 0.316 µM)?
**A.** Its viability, T/C is 91.9%.

**Q.** What about the viability, T/C (second compound 0.0316 µM, first compound 1 µM) of the same molecule?
**A.** The viability, T/C was 87.9%.

**Q.** What about the viability, T/C (second compound 0.0316 µM, first compound 3.16 µM) of the same molecule?
**A.** The viability, T/C was 82.2%.

**Q.** And the viability, T/C (second compound 0.0316 µM, first compound 10 µM)?
**A.** Its viability, T/C is 4.47%.

**Q.** What about the viability, T/C (second compound 0.1 µM, first compound 0.0316 µM) of the same molecule?
**A.** The viability, T/C was 61.6%.

**Q.** What about the viability, T/C (second compound 0.1 µM, first compound 0.1 µM) of the same molecule?
**A.** Its viability, T/C is 54.7%.

**Q.** And the viability, T/C (second compound 0.1 µM, first compound 0.316 µM)?
**A.** Its viability, T/C is 53.9%.

**Q.** And the viability, T/C (second compound 0.1 µM, first compound 1 µM)?
**A.** The viability, T/C was 50.8%.

**Q.** What about the viability, T/C (second compound 0.1 µM, first compound 3.16 µM) of the same molecule?
**A.** The viability, T/C was 49.1%.

**Q.** What about the viability, T/C (second compound 0.1 µM, first compound 10 µM) of the same molecule?
**A.** The viability, T/C was 3.1%.

**Q.** What about the viability, T/C (second compound 0.316 µM, first compound 0.0316 µM) of the same molecule?
**A.** Its viability, T/C is 25%.

**Q.** And the viability, T/C (second compound 0.316 µM, first compound 0.1 µM)?
**A.** The viability, T/C was 24.5%.

**Q.** And the viability, T/C (second compound 0.316 µM, first compound 0.316 µM)?
**A.** Its viability, T/C is 31%.

**Q.** What about the viability, T/C (second compound 0.316 µM, first compound 1 µM) of the same molecule?
**A.** Its viability, T/C is 22.8%.

**Q.** What about the viability, T/C (second compound 0.316 µM, first compound 3.16 µM) of the same molecule?
**A.** Its viability, T/C is 18.4%.

**Q.** And the viability, T/C (second compound 0.316 µM, first compound 10 µM)?
**A.** The viability, T/C was 1.05%.

**Q.** And the viability, T/C (second compound 1 µM, first compound 0.0316 µM)?
**A.** Its viability, T/C is 1.86%.

**Q.** What about the viability, T/C (second compound 1 µM, first compound 0.1 µM) of the same molecule?
**A.** The viability, T/C was 2.01%.

**Q.** What about the viability, T/C (second compound 1 µM, first compound 0.316 µM) of the same molecule?
**A.** The viability, T/C was 2.61%.

**Q.** And the viability, T/C (second compound 1 µM, first compound 1 µM)?
**A.** Its viability, T/C is 1.74%.

**Q.** And the viability, T/C (second compound 1 µM, first compound 3.16 µM)?
**A.** Its viability, T/C is 1.47%.

**Q.** What about the viability, T/C (second compound 1 µM, first compound 10 µM) of the same molecule?
**A.** Its viability, T/C is 0.1%.

**Q.** And the viability, T/C (second compound 3.16 µM, first compound 0.0316 µM)?
**A.** Its viability, T/C is 0.87%.

**Q.** And the viability, T/C (second compound 3.16 µM, first compound 0.1 µM)?
**A.** The viability, T/C was 1.12%.

**Q.** What about the viability, T/C (second compound 3.16 µM, first compound 0.316 µM) of the same molecule?
**A.** Its viability, T/C is 0.66%.

**Q.** And the viability, T/C (second compound 3.16 µM, first compound 1 µM)?
**A.** Its viability, T/C is 0.73%.

**Q.** What about the viability, T/C (second compound 3.16 µM, first compound 3.16 µM) of the same molecule?
**A.** The viability, T/C was 0.71%.

**Q.** What about the viability, T/C (second compound 3.16 µM, first compound 10 µM) of the same molecule?
**A.** Its viability, T/C is 0.13%.

**Q.** And the viability, T/C (second compound 10 µM, first compound 0.0316 µM)?
**A.** Its viability, T/C is 0.3%.

**Q.** And the viability, T/C (second compound 10 µM, first compound 0.1 µM)?
**A.** Its viability, T/C is 0.27%.

**Q.** What about the viability, T/C (second compound 10 µM, first compound 0.316 µM) of the same molecule?
**A.** The viability, T/C was 0.3%.

**Q.** What about the viability, T/C (second compound 10 µM, first compound 1 µM) of the same molecule?
**A.** Its viability, T/C is 0.31%.

**Q.** And the viability, T/C (second compound 10 µM, first compound 3.16 µM)?
**A.** The viability, T/C was 0.44%.

**Q.** And the viability, T/C (second compound 10 µM, first compound 10 µM)?
**A.** The viability, T/C was 0.22%.
